Results taken from article PMC9724289 (The European Respiratory Journal, 2022).
One block for each compound: values may come before it.

Key:
[1] = tested on: human pulmonary arterial smooth muscle cells (HPASMCs); assay: PDGF-BB-induced HPASMC proliferation assay; format: cell-based
[2] = tested on: rat SU5416/Hypoxia (SU5416/H) model of PAH; assay: SU5416/H model; format: in vivo; details: for circulating IL-10 / circulating plasma TNF-α / lung mRNA and protein levels of MCP-1: day 49, vs vehicle; for lung BMPR2: end of treatment, vs vehicle
PDGFRβ = PDGFRβ (Rattus norvegicus, UniProt Q05030); assay: Imatinib in vivo pharmacodynamic profile; details: imatinib dose selected for the in vivo study, oral gavage
[3] = tested on: rat monocrotaline (MCT) model; details: cited from earlier work
BMPR2 = assay: Lung BMPR2 protein expression in healthy rats; format: in vivo, rat; details: inhaled, dose-dependent, over time (8, 16, 24 h post-dosing)
[4] = tested on: rat monocrotaline pneumonectomy (MCTPN) model of PAH; assay: MCTPN model; format: in vivo
c-KIT [5] = molecular target: c-KIT (Homo sapiens, UniProt P10721); assay: cell-based
[6] = Inhaled seralutinib pharmacokinetics in healthy rats; details: male, Sprague Dawley, rat, lung homogenate and plasma
[7] = tested on: rat SU5416/Hypoxia (SU5416/H) model of PAH; assay: SU5416/H model; format: in vivo; details: for RVSP end of study: 2 weeks
[8] = tested on: MCP-1 secretion in CSF1R+ human macrophages; assay: MCP-1/CCL2 secretion in primary human macrophages; format: cell-based; details: 24-hour incubation
c-KIT [9] = molecular target: c-KIT (Rattus norvegicus, UniProt F7EWK5); assay: Lung c-KIT phosphorylation after PDGF-BB and SCF challenge in healthy rats; format: in vivo; details: inhaled; co-administered intratracheal PDGF-BB and SCF
CSF1R = CSF1R (Homo sapiens, UniProt P07333); assay: M-CSF-induced pCSF1R in primary human macrophages
[10] = 2.5 mg·kg−1 twice daily inhaled, 11 days
[11] = 2.5 mg·kg−1 twice daily, vs vehicle
[12] = 4.6 mg·kg−1 twice daily, vs vehicle

Sequence of CSF1R (P07333 20-972): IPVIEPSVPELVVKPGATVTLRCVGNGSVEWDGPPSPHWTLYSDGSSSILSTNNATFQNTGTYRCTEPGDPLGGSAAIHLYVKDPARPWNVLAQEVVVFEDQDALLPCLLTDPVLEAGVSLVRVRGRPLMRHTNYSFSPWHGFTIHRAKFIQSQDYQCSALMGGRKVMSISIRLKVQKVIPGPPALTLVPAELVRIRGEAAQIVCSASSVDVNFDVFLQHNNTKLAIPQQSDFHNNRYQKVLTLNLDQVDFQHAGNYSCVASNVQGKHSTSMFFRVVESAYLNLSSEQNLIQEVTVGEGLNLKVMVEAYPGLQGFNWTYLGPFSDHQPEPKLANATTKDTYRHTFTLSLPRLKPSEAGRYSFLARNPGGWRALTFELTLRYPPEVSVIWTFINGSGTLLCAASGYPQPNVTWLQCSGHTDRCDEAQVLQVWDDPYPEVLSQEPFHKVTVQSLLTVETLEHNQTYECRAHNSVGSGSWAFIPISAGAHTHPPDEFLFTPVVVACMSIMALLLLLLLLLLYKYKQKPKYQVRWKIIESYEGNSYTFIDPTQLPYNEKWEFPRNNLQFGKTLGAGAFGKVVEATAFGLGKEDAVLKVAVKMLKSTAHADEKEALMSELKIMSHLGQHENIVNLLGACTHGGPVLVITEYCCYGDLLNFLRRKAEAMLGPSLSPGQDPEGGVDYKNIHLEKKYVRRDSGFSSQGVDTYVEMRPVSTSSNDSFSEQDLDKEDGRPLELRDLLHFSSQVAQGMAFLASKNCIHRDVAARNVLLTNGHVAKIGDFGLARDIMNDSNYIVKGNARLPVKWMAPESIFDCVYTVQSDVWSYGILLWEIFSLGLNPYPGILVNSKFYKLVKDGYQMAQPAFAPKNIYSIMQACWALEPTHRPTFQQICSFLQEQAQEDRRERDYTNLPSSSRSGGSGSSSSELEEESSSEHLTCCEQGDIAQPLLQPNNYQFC
Sequence of c-KIT (Homo sapiens, UniProt P10721) (P10721 26-976): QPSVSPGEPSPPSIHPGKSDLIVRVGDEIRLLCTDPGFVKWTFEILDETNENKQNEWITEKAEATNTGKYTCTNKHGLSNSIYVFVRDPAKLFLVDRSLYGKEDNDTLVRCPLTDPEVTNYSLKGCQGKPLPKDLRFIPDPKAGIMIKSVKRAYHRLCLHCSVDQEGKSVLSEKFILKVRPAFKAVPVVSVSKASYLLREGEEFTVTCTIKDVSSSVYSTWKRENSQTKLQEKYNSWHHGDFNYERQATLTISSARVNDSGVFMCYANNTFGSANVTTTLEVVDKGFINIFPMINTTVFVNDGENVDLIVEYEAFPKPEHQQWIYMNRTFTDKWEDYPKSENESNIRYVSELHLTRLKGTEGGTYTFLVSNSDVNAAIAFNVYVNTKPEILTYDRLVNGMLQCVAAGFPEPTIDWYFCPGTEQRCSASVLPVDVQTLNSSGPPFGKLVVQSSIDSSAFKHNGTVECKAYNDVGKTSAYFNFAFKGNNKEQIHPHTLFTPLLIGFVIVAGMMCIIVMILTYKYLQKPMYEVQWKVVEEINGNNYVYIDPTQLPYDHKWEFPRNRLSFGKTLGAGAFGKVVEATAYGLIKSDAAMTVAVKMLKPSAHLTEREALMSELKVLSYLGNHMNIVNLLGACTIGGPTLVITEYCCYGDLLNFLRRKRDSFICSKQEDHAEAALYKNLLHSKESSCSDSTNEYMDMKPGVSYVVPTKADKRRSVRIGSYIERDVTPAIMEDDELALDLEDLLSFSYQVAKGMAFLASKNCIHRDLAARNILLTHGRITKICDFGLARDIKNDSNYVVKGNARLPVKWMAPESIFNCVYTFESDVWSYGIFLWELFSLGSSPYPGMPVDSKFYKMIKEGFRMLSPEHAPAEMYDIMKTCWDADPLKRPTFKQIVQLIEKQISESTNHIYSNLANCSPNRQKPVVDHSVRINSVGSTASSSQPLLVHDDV
Sequence of PDGFRβ (Q05030 32-1097): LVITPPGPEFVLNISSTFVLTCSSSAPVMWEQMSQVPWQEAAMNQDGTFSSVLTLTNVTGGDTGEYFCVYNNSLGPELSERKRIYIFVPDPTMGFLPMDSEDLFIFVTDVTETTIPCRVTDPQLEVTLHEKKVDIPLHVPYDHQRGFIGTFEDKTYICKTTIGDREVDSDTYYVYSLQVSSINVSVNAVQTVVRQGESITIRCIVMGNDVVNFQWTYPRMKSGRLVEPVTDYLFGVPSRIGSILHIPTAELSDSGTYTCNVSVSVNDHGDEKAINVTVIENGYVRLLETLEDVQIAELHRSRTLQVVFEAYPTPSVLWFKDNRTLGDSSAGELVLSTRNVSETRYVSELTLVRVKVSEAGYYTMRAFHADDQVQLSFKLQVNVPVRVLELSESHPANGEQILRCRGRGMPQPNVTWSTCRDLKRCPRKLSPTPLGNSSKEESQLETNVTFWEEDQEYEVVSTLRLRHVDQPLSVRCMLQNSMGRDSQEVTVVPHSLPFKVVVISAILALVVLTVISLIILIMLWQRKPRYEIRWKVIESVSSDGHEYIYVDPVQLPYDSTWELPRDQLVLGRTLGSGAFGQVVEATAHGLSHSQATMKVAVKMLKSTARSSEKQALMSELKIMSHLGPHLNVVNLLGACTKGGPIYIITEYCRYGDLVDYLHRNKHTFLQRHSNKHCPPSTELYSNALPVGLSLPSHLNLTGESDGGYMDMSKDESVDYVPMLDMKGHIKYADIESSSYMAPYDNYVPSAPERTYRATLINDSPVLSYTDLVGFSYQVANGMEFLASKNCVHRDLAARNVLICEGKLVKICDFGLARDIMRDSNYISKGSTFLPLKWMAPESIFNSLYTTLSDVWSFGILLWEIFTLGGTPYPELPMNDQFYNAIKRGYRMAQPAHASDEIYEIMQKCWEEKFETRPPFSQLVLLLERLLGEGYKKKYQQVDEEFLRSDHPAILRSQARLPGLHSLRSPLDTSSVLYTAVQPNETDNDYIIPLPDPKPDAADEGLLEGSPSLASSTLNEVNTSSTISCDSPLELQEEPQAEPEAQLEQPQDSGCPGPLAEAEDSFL
Sequence of c-KIT (Rattus norvegicus, UniProt F7EWK5) (F7EWK5 26-978): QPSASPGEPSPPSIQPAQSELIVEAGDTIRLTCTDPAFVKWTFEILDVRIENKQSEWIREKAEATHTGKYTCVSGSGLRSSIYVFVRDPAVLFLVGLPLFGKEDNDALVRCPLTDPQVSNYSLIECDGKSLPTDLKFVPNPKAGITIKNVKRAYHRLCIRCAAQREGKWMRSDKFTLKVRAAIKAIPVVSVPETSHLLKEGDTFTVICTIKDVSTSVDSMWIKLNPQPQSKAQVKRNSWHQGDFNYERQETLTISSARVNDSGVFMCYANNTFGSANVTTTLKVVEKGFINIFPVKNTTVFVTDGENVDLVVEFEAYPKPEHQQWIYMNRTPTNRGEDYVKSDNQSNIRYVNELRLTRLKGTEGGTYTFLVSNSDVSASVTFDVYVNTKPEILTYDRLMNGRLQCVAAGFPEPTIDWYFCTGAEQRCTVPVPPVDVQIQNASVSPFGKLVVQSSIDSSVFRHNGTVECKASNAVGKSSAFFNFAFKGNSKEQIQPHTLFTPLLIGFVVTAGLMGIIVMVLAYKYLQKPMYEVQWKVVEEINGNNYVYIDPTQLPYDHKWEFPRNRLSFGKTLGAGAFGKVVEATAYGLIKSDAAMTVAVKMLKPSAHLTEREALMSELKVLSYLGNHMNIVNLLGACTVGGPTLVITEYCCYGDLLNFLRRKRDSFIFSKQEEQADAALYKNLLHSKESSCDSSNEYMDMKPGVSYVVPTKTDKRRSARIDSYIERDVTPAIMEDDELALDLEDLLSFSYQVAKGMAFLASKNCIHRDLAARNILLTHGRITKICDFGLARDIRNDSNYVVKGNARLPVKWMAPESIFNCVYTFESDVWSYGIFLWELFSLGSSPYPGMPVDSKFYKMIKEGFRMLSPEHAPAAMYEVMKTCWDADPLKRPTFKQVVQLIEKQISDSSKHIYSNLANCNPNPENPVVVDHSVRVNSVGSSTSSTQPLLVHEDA

PDGFRβ phosphorylation in healthy rats (PDGFRβ): potent inhibition
Compound: Cc1ccc(NC(=O)c2ccc(CN3CCN(C)CC3)cc2)cc1Nc1nccc(-c2cccnc2)n1 [Imatinib, reference compound]
potency less than seralutinib ([1]; human PASMC and HLF proliferation assays): 13–20 fold
circulating IL-10 [2]: did not significantly alter
circulating plasma TNF-α [2]: did not significantly alter
lung mRNA and protein levels of MCP-1 [2]: did not modulate
lung BMPR2 [2]: no significant effect
effect on NT-proBNP ([2]; imatinib 15.0 mg·kg−1 once daily oral, day 49): no significant effect
pulmonary hypertension in rat MCT model [3]: reversed pulmonary hypertension

Compound: COc1ccc(-c2cncc(N[C@@H](C)c3cccc(NC(=O)c4cncc(C)c4)c3)n2)cc1OC [Seralutinib, N-[3-[(1S)-1-[[6-(3,4-dimethoxyphenyl)pyrazin-2-yl]amino]ethyl]phenyl]-5-methylpyridine-3-carboxamide]
increase in lung BMPR2 protein expression (BMPR2): 2-to-2.5 fold
reduction in RVSP compared to vehicle [4, 10]: 50%
reduction of right ventricular hypertrophy compared to vehicle [4, 10]: 49%
PASP lower compared to vehicle ([4]; 2.5 mg·kg−1 twice daily inhaled, day 9): 34%
PASP lower compared to vehicle ([4]; 2.5 mg·kg−1 twice daily inhaled, day 10): 37%
PASP lower compared to vehicle ([4]; 2.5 mg·kg−1 twice daily inhaled, day 11): 41%
lumen-to-media area ([4]; 2.5 mg·kg−1 twice daily, vs controls): increased
grade 1 and 2 lesions [4, 11]: fewer
perivascular fibrosis [4, 11]: qualitative decrease
airway resistance ([4]; vs vehicle): similar
minute ventilation ([4]; vs vehicle): similar
respiratory rate ([4]; vs vehicle): decreased
tidal volume ([4]; vs vehicle): significantly improved
IC50 (c-KIT [5]): 7.8 nM
greater potency at inhibiting proliferation compared to imatinib ([1]; human PASMCs and HLFs): 13- to 20 fold
decrease of NT-proBNP versus vehicle control ([2]; 12.8 mg·kg−1 twice daily inhaled, day 49): 55%
small pulmonary artery muscularisation ([2]; compared to both the vehicle and imatinib-treated groups): decrease
SMAD1/5 phosphorylation in lung ([2]; day 49): increase
circulating PDGF-BB ([2]; day 49): trend towards decreased
circulating IL-10 [2]: increased
circulating plasma TNF-α [2]: decreased
lung mRNA and protein levels of MCP-1 [2]: decreased
effect on stroke volume index and cardiac index compared to imatinib ([2]; echocardiography, day 49): significantly greater effect
lung BMPR2 [2]: significantly increased
Kp [6]: 30
RVSP end of study ([7]; 2.5 mg·kg−1 twice daily inhaled): 49.6±3.1 mmHg
reduction of PASP relative to vehicle ([7]; 2.5 mg·kg−1 twice daily inhaled, end of 2-week treatment, telemetry): 43%
RVSP end of study ([7]; 4.6 mg·kg−1 twice daily inhaled): 34.7±2.2 mmHg
lung phospho-PDGFRβ IHC [7, 12]: reduced intensity
number of grade 2 lesions (small pulmonary artery occlusion) [7, 12]: significant decrease
small pulmonary artery lumen-to-media area [7, 12]: increased
MCP-1 secretion [8]: reduced MCP-1 secretion in a dose-dependent manner
inhibition of c-KIT Y719 phosphorylation in lung (c-KIT [9]): 43%
IC50 (CSF1R): 14.4 nM
more potent than imatinib, pCSF1R (CSF1R; M-CSF-induced phosphorylation of CSF1R in human primary differentiated macrophages): 34 fold
